Measurements taken from the NIST ThermoML archive (doi:10.1021/je050085p).

Key:
[1] = refractive index (Na D-line) (dimensionless); settings: 101.33 kPa, Liquid, Standard Abbe refractometry
[2] = 101.33 kPa, Liquid
[3] = xn = mol fraction of the nth substance listed; settings: 308.15 K, 101 kPa, Liquid
[4] = refractive index (Na D-line) (dimensionless); xn = mol fraction of the nth substance listed; settings: 308.15 K, 101 kPa, Liquid, Standard Abbe refractometry
[5] = excess molar enthalpy (molar enthalpy of mixing); xn = mol fraction of the nth substance listed; settings: 308.15 K, 101 kPa, Liquid, Flow calorimetry

OCc1ccccc1 [benzenemethanol]
Settings | mass density, [2] [kg/m3] | refractive index, [1]
298.15 K | 1041.65 | 1.5377
308.15 K | 1033.64 | 1.535

OCc1ccccc1 [benzenemethanol] + COc1ccccc1
Settings | excess molar enthalpy [kcal/mol] | mass density [kg/m3] | refractive index
[3], x2 = 0.0519 | – | 1030.85 | –
[3], x2 = 0.0898 | – | 1028.81 | –
[3], x2 = 0.1854 | – | 1023.62 | –
[3], x2 = 0.2883 | – | 1018 | –
[3], x2 = 0.3766 | – | 1013.19 | –
[3], x2 = 0.4911 | – | 1006.94 | –
[3], x2 = 0.5916 | – | 1001.47 | –
[3], x2 = 0.6747 | – | 996.96 | –
[3], x2 = 0.7745 | – | 991.59 | –
[3], x2 = 0.9039 | – | 984.73 | –
[3], x2 = 0.9448 | – | 982.58 | –
[3], x2 = 0.9723 | – | 981.14 | –
[4], x2 = 0.0519 | – | – | 1.5335
[4], x2 = 0.0898 | – | – | 1.5324
[4], x2 = 0.1854 | – | – | 1.5298
[4], x2 = 0.2883 | – | – | 1.527
[4], x2 = 0.3766 | – | – | 1.5247
[4], x2 = 0.4911 | – | – | 1.5218
[4], x2 = 0.5916 | – | – | 1.5193
[4], x2 = 0.6747 | – | – | 1.5173
[4], x2 = 0.7745 | – | – | 1.5149
[4], x2 = 0.9039 | – | – | 1.5118
[4], x2 = 0.9448 | – | – | 1.5108
[4], x2 = 0.9723 | – | – | 1.5102
[5], x2 = 0.038 | 0.022 | – | –
[5], x2 = 0.0732 | 0.0461 | – | –
[5], x2 = 0.1059 | 0.0655 | – | –
[5], x2 = 0.1364 | 0.0877 | – | –
[5], x2 = 0.1916 | 0.121 | – | –
[5], x2 = 0.2401 | 0.148 | – | –
[5], x2 = 0.3216 | 0.182 | – | –
[5], x2 = 0.3871 | 0.203 | – | –
[5], x2 = 0.4866 | 0.232 | – | –
[5], x2 = 0.5872 | 0.249 | – | –
[5], x2 = 0.6547 | 0.254 | – | –
[5], x2 = 0.7398 | 0.252 | – | –
[5], x2 = 0.7913 | 0.24 | – | –
[5], x2 = 0.8505 | 0.211 | – | –
[5], x2 = 0.8835 | 0.185 | – | –
[5], x2 = 0.9191 | 0.146 | – | –
[5], x2 = 0.9578 | 0.0877 | – | –

CCOc1ccccc1 [ethoxybenzene]
Settings | mass density, [2] [kg/m3] | refractive index, [1]
298.15 K | – | 1.5058
308.15 K | 950.86 | 1.5002

CCOc1ccccc1 [ethoxybenzene] + OCCc1ccccc1
Settings | excess molar enthalpy [kcal/mol] | mass density [kg/m3] | refractive index
[3], x1 = 0.0656 | – | 1004.96 | –
[3], x1 = 0.1079 | – | 1002.5 | –
[3], x1 = 0.1726 | – | 998.71 | –
[3], x1 = 0.3041 | – | 990.99 | –
[3], x1 = 0.3803 | – | 986.52 | –
[3], x1 = 0.4826 | – | 980.37 | –
[3], x1 = 0.5243 | – | 978.09 | –
[3], x1 = 0.5904 | – | 974.22 | –
[3], x1 = 0.6819 | – | 968.87 | –
[3], x1 = 0.7929 | – | 962.44 | –
[3], x1 = 0.8881 | – | 957 | –
[3], x1 = 0.9469 | – | 953.74 | –
[3], x1 = 0.9881 | – | 951.5 | –
[4], x1 = 0.0656 | – | – | 1.5252
[4], x1 = 0.1079 | – | – | 1.524
[4], x1 = 0.1726 | – | – | 1.5223
[4], x1 = 0.3041 | – | – | 1.5187
[4], x1 = 0.3803 | – | – | 1.5166
[4], x1 = 0.4826 | – | – | 1.5137
[4], x1 = 0.5243 | – | – | 1.5126
[4], x1 = 0.5904 | – | – | 1.5108
[4], x1 = 0.6819 | – | – | 1.5083
[4], x1 = 0.7929 | – | – | 1.5054
[4], x1 = 0.8881 | – | – | 1.5029
[4], x1 = 0.9469 | – | – | 1.5014
[4], x1 = 0.9881 | – | – | 1.5005
[5], x1 = 0.0378 | 0.027 | – | –
[5], x1 = 0.0728 | 0.0534 | – | –
[5], x1 = 0.1054 | 0.0772 | – | –
[5], x1 = 0.1358 | 0.0979 | – | –
[5], x1 = 0.1907 | 0.135 | – | –
[5], x1 = 0.2391 | 0.159 | – | –
[5], x1 = 0.3203 | 0.193 | – | –
[5], x1 = 0.3858 | 0.218 | – | –
[5], x1 = 0.4852 | 0.245 | – | –
[5], x1 = 0.5857 | 0.268 | – | –
[5], x1 = 0.6534 | 0.275 | – | –
[5], x1 = 0.7388 | 0.273 | – | –
[5], x1 = 0.7904 | 0.264 | – | –
[5], x1 = 0.8498 | 0.232 | – | –
[5], x1 = 0.8829 | 0.204 | – | –
[5], x1 = 0.9188 | 0.161 | – | –
[5], x1 = 0.9577 | 0.0965 | – | –

CCOc1ccccc1 [ethoxybenzene] + OCc1ccccc1
Settings | excess molar enthalpy [kcal/mol] | mass density [kg/m3] | refractive index
[3], x1 = 0.0642 | – | 1027.61 | –
[3], x1 = 0.0826 | – | 1025.86 | –
[3], x1 = 0.1663 | – | 1018.18 | –
[3], x1 = 0.1751 | – | 1017.38 | –
[3], x1 = 0.2585 | – | 1009.89 | –
[3], x1 = 0.3363 | – | 1003.06 | –
[3], x1 = 0.4598 | – | 992.51 | –
[3], x1 = 0.544 | – | 985.53 | –
[3], x1 = 0.6369 | – | 978.04 | –
[3], x1 = 0.7572 | – | 968.65 | –
[3], x1 = 0.8621 | – | 960.77 | –
[3], x1 = 0.9361 | – | 955.37 | –
[4], x1 = 0.0642 | – | – | 1.5322
[4], x1 = 0.0826 | – | – | 1.5313
[4], x1 = 0.1663 | – | – | 1.5279
[4], x1 = 0.1751 | – | – | 1.5275
[4], x1 = 0.2585 | – | – | 1.5244
[4], x1 = 0.3363 | – | – | 1.5216
[4], x1 = 0.4598 | – | – | 1.5172
[4], x1 = 0.544 | – | – | 1.5142
[4], x1 = 0.6369 | – | – | 1.5111
[4], x1 = 0.7572 | – | – | 1.5071
[4], x1 = 0.8621 | – | – | 1.5039
[4], x1 = 0.9361 | – | – | 1.5018
[5], x1 = 0.0328 | 0.0247 | – | –
[5], x1 = 0.0636 | 0.0454 | – | –
[5], x1 = 0.0924 | 0.0677 | – | –
[5], x1 = 0.1195 | 0.0854 | – | –
[5], x1 = 0.1691 | 0.118 | – | –
[5], x1 = 0.2135 | 0.147 | – | –
[5], x1 = 0.2893 | 0.177 | – | –
[5], x1 = 0.3517 | 0.205 | – | –
[5], x1 = 0.4488 | 0.232 | – | –
[5], x1 = 0.5499 | 0.252 | – | –
[5], x1 = 0.6196 | 0.262 | – | –
[5], x1 = 0.7095 | 0.266 | – | –
[5], x1 = 0.7651 | 0.259 | – | –
[5], x1 = 0.8301 | 0.232 | – | –
[5], x1 = 0.8669 | 0.209 | – | –
[5], x1 = 0.907 | 0.169 | – | –
[5], x1 = 0.9513 | 0.104 | – | –
